In patent publication US5945404A, “21-Substituted steroid compound” (priority 1993, dated 1999):
“And” between values parts separate entries of the source, which are not always exact repeats. Equal values may be shown once. Read-outs that look alike come from different tables or passages of the source.

Test system: croton oil-induced granuloma
Test: Croton Oil-induced Granuloma (granuloma pouch)
Format: in vivo, male Sprague-Dawley rats
Conditions: for inhibition in vivo at 0.01 mg / inhibition in vivo at 0.1 mg / inhibition in vivo at 1 mg: Rattus norvegicus, 168 h
Description: Groups of 5 male Sprague-Dawley rats each weighing 160-180 g were used. Under ether anesthesia, the dorsum of animals was closely clipped, and air sac was formed by injecting air (20 ml) subcutaneously. Next day cotton seed oil containing 1% croton oil was injected into the air sac. Drugs to be tested were suspended in the cotton seed oil containing 1% croton oil, and administered. After 7 days, the blood was taken from the animal under ether anesthesia. Then, the granuloma pouch fluid (exudate) was collected, and the fluid volume was measured. The pouch wall formed around granuloma and thymus were also excised and weighed.

[1] = 0.01 mg/rat, 7 days, read-out: Effects on granuloma weight, per cent of inhibition over the control
[2] = 0.01 mg/rat, 7 days, read-out: Effects on pouch fluid (exudate) volume, per cent of inhibition over the control
[3] = 0.1 mg/rat, 7 days, read-out: Effects on granuloma weight, per cent of inhibition over the control
[4] = 0.1 mg/rat, 7 days, read-out: Effects on pouch fluid (exudate) volume, per cent of inhibition over the control
[5] = 1.0 mg/rat, 7 days, read-out: Effects on granuloma weight, per cent of inhibition over the control
[6] = 1.0 mg/rat, 7 days, read-out: Effects on pouch fluid (exudate) volume, per cent of inhibition over the control
[7] = read-out: Effects on granuloma weight, per cent of inhibition over the control

Compound: C[C@H]1C[C@H]2[C@@H]3CCC4=CC(=O)C=C[C@]4(C)[C@@]3(F)[C@@H](O)C[C@]2(C)[C@@]1(O)C(=O)CO[C@@H]1O[C@H](COC(=O)c2ccccc2)[C@@H](OC(=O)c2ccccc2)[C@H](OC(=O)c2ccccc2)[C@H]1OC(=O)c1ccccc1 [Compound 100β, glucosylbetamethasone (benzoyl derivative)]
- inhibition in vivo at 0.01 mg [1]: 11 ± 6.5%
- inhibition in vivo at 0.01 mg [2]: 20.8 ± 11.7%
- inhibition in vivo at 0.1 mg [3]: 4.1 ± 11.3%
- inhibition in vivo at 0.1 mg [4]: 17.5 ± 5.9%
- inhibition in vivo at 1 mg [5]: 60.5 ± 5.8%
- inhibition in vivo at 1 mg [6]: 69.4 ± 6.7%

Compound: CCCCC(=O)O[C@]1(C(=O)CO)[C@@H](C)C[C@H]2[C@@H]3CCC4=CC(=O)C=C[C@]4(C)[C@@]3(F)[C@@H](O)C[C@@]21C [Betamethasone valerate, reference compound]
- Effects on thymus weight, per cent of inhibition over the control thymus weight (1.0 mg/rat, 7 days): 37.0 ± 3.0 per cent and 58.9 ± 3.3 per cent
- inhibition in vivo at 1 mg [5]: 18.7 ± 11.7%
- inhibition in vivo at 1 mg [6]: 23.9 ± 12.1%

Compound: CCCC(=O)O[C@]1(C(=O)COC(C)=O)CC[C@H]2[C@@H]3C[C@H](F)C4=CC(=O)C=C[C@]4(C)[C@@]3(F)[C@@H](O)C[C@@]21C [Diflupredonate, reference compound]
- Effects on thymus weight, per cent of inhibition over the control thymus weight (0.01 mg/rat, 7 days): 14.7 ± 10.4 per cent
- Effects on thymus weight, per cent of inhibition over the control thymus weight (0.1 mg/rat, 7 days): 71.2 ± 2.9 per cent
- Effects on thymus weight, per cent of inhibition over the control thymus weight (1.0 mg/rat, 7 days): 71.8 ± 3.2 per cent
- inhibition in vivo at 0.01 mg [1]: -11 ± 23.1%
- inhibition in vivo at 0.01 mg [2]: 17.4 ± 13.5%
- inhibition in vivo at 0.1 mg [3]: 35 ± 10.3%
- inhibition in vivo at 0.1 mg [4]: 65.3 ± 12.1%
- inhibition in vivo at 1 mg [5]: 78.8 ± 5%
- inhibition in vivo at 1 mg [6]: 96.2 ± 1.2%

Compound: Diflurasone acetate [reference compound]
- Effects on granuloma weight, per cent of inhibition over the control (0.01 mg/rat, 7 days): -13.1 ± 13.3 per cent
- Effects on granuloma weight, per cent of inhibition over the control (0.1 mg/rat, 7 days): 4.0 ± 10.5 per cent
- Effects on granuloma weight, per cent of inhibition over the control (1.0 mg/rat, 7 days): 11.7 ± 12.4 per cent

Compound: CCC(=O)O[C@]1(C(=O)COC(C)=O)[C@@H](C)C[C@H]2[C@@H]3CCC4=CC(=O)C=C[C@]4(C)[C@@]3(F)[C@@H](O)C[C@@]21C [Betamethasone acetate propionate, reference compound]
- Effects on granuloma weight, per cent of inhibition over the control (0.01 mg/rat, 7 days): 21.2 ± 6.4 per cent
- Effects on granuloma weight, per cent of inhibition over the control (0.1 mg/rat, 7 days): 26.0 ± 6.9 per cent
- Effects on pouch fluid (exudate) volume, per cent of inhibition over the control (rat, in vivo): 27.6 ± 8.1 and 43.6 ± 4.7

Compound: CC(=O)OC[C@H]1O[C@@H](OCC(=O)[C@H]2[C@H](C)C[C@H]3[C@@H]4C[C@H](F)C5=CC(=O)C=C[C@]5(C)[C@@]4(F)[C@@H](O)C[C@@]32C)[C@H](OC(C)=O)[C@@H](OC(C)=O)[C@@H]1OC(C)=O [Compound 113β, glucosyldiflucortolone (acetyl derivative)]
- inhibition in vivo at 0.01 mg [1]: 47.4 ± 11%
- inhibition in vivo at 0.01 mg [2]: 90.5 ± 6.6%
- inhibition in vivo at 0.1 mg [3]: 60.8 ± 9.3%
- inhibition in vivo at 0.1 mg [4]: 97.1 ± 0.5%
- inhibition in vivo at 1 mg [5]: 90.5 ± 0.6%
- inhibition in vivo at 1 mg [6]: 97.5 ± 0.7%

Compound: Cc1ccc(C(=O)OC[C@H]2O[C@@H](OCC(=O)[C@@]3(O)[C@@H](C)C[C@H]4[C@@H]5CCC6=CC(=O)C=C[C@]6(C)[C@@]5(F)[C@@H](O)C[C@@]43C)[C@H](OC(=O)c3ccc(C)cc3)[C@@H](OC(=O)c3ccc(C)cc3)[C@@H]2OC(=O)c2ccc(C)cc2)cc1 [Compound 91β, Glucosylbetamethasone (per Tol)]
- inhibition in vivo at 0.01 mg [1]: 17.1 ± 6.7%
- inhibition in vivo at 0.01 mg [2]: 25.3 ± 5.3%
- inhibition in vivo at 0.1 mg [3]: 6.9 ± 5.1%
- inhibition in vivo at 0.1 mg [4]: 18.4 ± 6.1%
- inhibition in vivo at 1 mg [5]: 4.3 ± 8.2%
- inhibition in vivo at 1 mg [6]: 18.9 ± 8.8%

Compound: CCCCC(=O)OCC(=O)[C@H]1[C@H](C)C[C@H]2[C@@H]3C[C@H](F)C4=CC(=O)C=C[C@]4(C)[C@@]3(F)[C@@H](O)C[C@@]21C [Diflucortolone valerate, reference compound]
- inhibition in vivo at 0.01 mg [7]: 12.8 ± 5.1%
- inhibition in vivo at 1 mg [7]: 66 ± 7.1%
